Reference: patent publication US20150010928A1, “MEANS AND METHODS FOR ASSESSING AN ENDOCRINE DISEASE OR DISORDER” (priority 2012, published 2015)
Marks after values point to notes of the source that are not given here.

Tested on: male rats
Experiment: Plasma metabolite profiling (GC-MS, LC-MS, SPE-LC-MS) in male rats dosed once daily over 28 days (OECD 407)
Type: in vivo, rat
Conditions: high dose; for Glycochenodeoxycholic acid / Mannose: Table 15c; for 3,4-Dihydroxyphenylacetic acid (DOPAC) / 18-Hydroxy-11-deoxycorticosterone / Glycerol phosphate, lipid fraction / Homovanillic acid (HVA) / Kynurenic acid / Lysophosphatidylcholine (C18:1) / Lysophosphatidylethanolamine (C22:5) / Phosphate, lipid fraction / Phosphatidylcholine (C18:0,C18:1) / Sphingomyelin (d18:1, C16:0) / Sphingomyelin (d18:1,C23:0) / Sphingomyelin (d18:1,C24:0) / Sphingomyelin (d18:2,C18:0) / TAG No 02 / Taurocholic acid / myo-Inositol, lipid fraction: Table 15d; for Alanine, ratio versus control / Androstenedione, ratio versus control / Glycine, ratio versus control / Heptadecanoic acid (C17:0), ratio versus control / Testosterone, ratio versus control / Threonine, ratio versus control / Uric acid, ratio versus control / alpha-Tocopherol, ratio versus control / Cholesterol, ratio versus control: male rats, plasma
In short: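 Metabolites were measured by GC-MS (derivatised) and reversed-phase LC-MS, with steroids by online SPE-LC-MS, in plasma drawn from fasted rats on days 7, 14 and 28 of once-daily dosing (5/sex/group). Values are ratios versus sex-matched untreated controls, normalized to pool samples, with Welch-test p-values.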

## C[C@@H]1CC2=CC(=O)CC[C@@H]2[C@H]2CC[C@@]3(C)[C@@H](CC[C@]3(C)O)[C@@H]21 [Mibolerone]
m7, male rats
  Glycochenodeoxycholic acid: 1.31
  Mannose: 1.41 *
  3,4-Dihydroxyphenylacetic acid (DOPAC): 0.83 *
  18-Hydroxy-11-deoxycorticosterone: 0.83 *
  Glycerol phosphate, lipid fraction: 0.08 *
  Homovanillic acid (HVA): 0.5 *
  Kynurenic acid: 0.73 *
  Lysophosphatidylcholine (C18:1): 0.53 *
  Lysophosphatidylethanolamine (C22:5): 0.54 *
  Phosphate, lipid fraction: 0.32 *
  Phosphatidylcholine (C18:0,C18:1): 0.19 *
  Sphingomyelin (d18:1, C16:0): 0.12 *
  Sphingomyelin (d18:1,C23:0): 0.07 *
  Sphingomyelin (d18:1,C24:0): 0.1 *
  Sphingomyelin (d18:2,C18:0): 0.17 *
  TAG No 02: 0.34 *
  Taurocholic acid: 1.11
  myo-Inositol, lipid fraction: 0.08 *
m14, male rats
  Glycochenodeoxycholic acid: 2.14 *
  Mannose: 1.08 *
  3,4-Dihydroxyphenylacetic acid (DOPAC): 0.96
  18-Hydroxy-11-deoxycorticosterone: 0.93
  Glycerol phosphate, lipid fraction: 0.35 *
  Homovanillic acid (HVA): 0.69 *
  Kynurenic acid: 0.5
  Lysophosphatidylcholine (C18:1): 0.81 *
  Lysophosphatidylethanolamine (C22:5): 0.87
  Phosphate, lipid fraction: 0.62 *
  Phosphatidylcholine (C18:0,C18:1): 0.61 *
  Sphingomyelin (d18:1, C16:0): 0.37 *
  Sphingomyelin (d18:1,C23:0): 0.53 *
  Sphingomyelin (d18:1,C24:0): 0.63 *
  Sphingomyelin (d18:2,C18:0): 0.3 *
  TAG No 02: 0.24 *
  Taurocholic acid: 0.62 *
  myo-Inositol, lipid fraction: 0.29 *
m28, male rats
  Glycochenodeoxycholic acid: 5.73 *
  Mannose: 1.07 *
  3,4-Dihydroxyphenylacetic acid (DOPAC): 0.79 *
  18-Hydroxy-11-deoxycorticosterone: 0.63 *
  Glycerol phosphate, lipid fraction: 0.7
  Homovanillic acid (HVA): 0.6 *
  Kynurenic acid: 0.54 *
  Lysophosphatidylcholine (C18:1): 0.91 *
  Lysophosphatidylethanolamine (C22:5): 0.85 *
  Phosphate, lipid fraction: 0.81 *
  Phosphatidylcholine (C18:0,C18:1): 1.1
  Sphingomyelin (d18:1, C16:0): 0.51 *
  Sphingomyelin (d18:1,C23:0): 1.09
  Sphingomyelin (d18:1,C24:0): 1.01
  Sphingomyelin (d18:2,C18:0): 0.33 *
  TAG No 02: 0.23 *
  Taurocholic acid: 0.75 *
  myo-Inositol, lipid fraction: 0.5 *
Day 7
  Alanine, ratio versus control: 0.72 *
  Androstenedione, ratio versus control: 0.05 *
  Glycine, ratio versus control: 0.86 *
  Heptadecanoic acid (C17:0), ratio versus control: 0.37 *
  Testosterone, ratio versus control: 0.07 *
  Threonine, ratio versus control: 0.76 *
  Uric acid, ratio versus control: 0.66 *
  alpha-Tocopherol, ratio versus control: 0.07 *
Day 14
  Alanine, ratio versus control: 0.93 *
  Androstenedione, ratio versus control: 0.96^
  Cholesterol, ratio versus control: 0.27 *
  Glycine, ratio versus control: 0.86^
  Heptadecanoic acid (C17:0), ratio versus control: 0.57 *
  Testosterone, ratio versus control: 0.68 *
  Threonine, ratio versus control: 1.02^
  Uric acid, ratio versus control: 0.7 *
  alpha-Tocopherol, ratio versus control: 0.33 *
Day 28
  Alanine, ratio versus control: 1.14^
  Androstenedione, ratio versus control: 0.46 *
  Cholesterol, ratio versus control: 0.52 *
  Glycine, ratio versus control: 0.72 *
  Heptadecanoic acid (C17:0), ratio versus control: 0.82 *
  Testosterone, ratio versus control: 0.26 *
  Threonine, ratio versus control: 1.04^
  Uric acid, ratio versus control: 0.5 *
  alpha-Tocopherol, ratio versus control: 0.64 *
